Assay results from PubChem BioAssay AID179 (DTP/NCI, 2004).
Values joined by “and” are separate entries in the source; they are usually repeats but may differ in a detail not shown here. Equal entries are not always repeated. Active and inactive are the calls of the source.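 How the source made its calls: active means compounds giving half or more protection of infected cells from virus-caused growth loss, again on retest; inactive means the rest.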

Test system: CEM cells HIV-1 protection, formazan growth assay
Assay: NCI AIDS Antiviral Assay
Settings: for IC50: measured here: growth of uninfected CEM cells
In short: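 Five concentrations of each compound were applied to infected and uninfected human CEM cells. Protection from HIV-1 was judged from growth measured with a soluble formazan assay.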

SMILES | EC50 | IC50 | outcome
CC(CC[C@@H](O)C(C)(C)O)C1[C@@H](O)CC2(C)C3CC(O)C4C(C)(C)[C@@H](OC5OC(CO)C(O)C(O)C5O)CC[C@@]45C[C@@]35CC[C@]12C (stereo not given in full) | > 200 µM | > 200 µM | 
O=c1oc2ccccc2c(O)c1Cc1cccc(Cc2c(O)c3ccccc3oc2=O)c1 |  |  | active
C/C(=N/O)c1sc(-c2nc(C)c(/C(C)=N\O)s2)nc1C | > 115 µM | > 115 µM | 
N#C/C(=C\n1c(=S)[nH]c2ccc([N+](=O)[O-])cc21)c1cccc(Cl)c1 | > 200 µM | 120 µM | 
N#CC1(c2ccccc2)C(c2ccccc2)CC(O)(c2ccccc2)C(C(=O)c2ccccc2)C1c1ccccc1 (stereo not given) | > 100 µM | 15.1 µM | 
COc1cc(C(=O)C/C(CCC(=O)Nc2ccccc2[N+](=O)[O-])=N\NC(N)=O)ccc1O | > 562 µM | 525 µM | 
COc1ccc(SSc2ccc(OC)cc2)cc1 | > 200 µM | > 200 µM | 
C/C=C1\CN(C(=O)OC(C)(C)C)C1C(=O)OC(C)(C)C (stereo not given) | > 200 µM | 85.1 µM | 
Cc1cccc2c1C(=O)OC2(C)c1cccc2ccccc12 (stereo not given) |  |  | inactive
Cc1ccc(S(=O)(=O)NC(C)C(=O)O)cc1 (stereo not given) |  |  | inactive
O=S(=O)(Nc1nnc2ccc3ccccc3n12)c1ccc(Cl)cc1S | > 200 µM | 105 µM | 
CC1=C(C(=O)Nc2ccccc2C)C(c2ccccc2C)C(C(=O)Nc2ccccc2C)=C(C)N1 | > 15.5 µM | > 15.5 µM | 
CCOC(=O)c1ccc(CSc2ccccc2C(=O)O)c([N+](=O)[O-])c1 | > 14.5 µM | > 14.5 µM | 
O=C1c2c(O)cc(O)cc2OC(c2ccc(O)c(O)c2)C1O (stereo not given) | > 200 µM | > 200 µM | 
COC(=O)c1cc(/C=C2\Cc3cc4c(cc3C2=O)CCC4)cc2c1CCC2 | > 200 µM | > 200 µM | 
CCOC(=O)CCC(NC(=O)c1ccc(Nc2nc3cc(C(F)(F)F)ccc3nc2C(=O)OCC)cc1)C(=O)OCC (stereo not given) | > 191 µM | 4.57 µM | 
N#CN/C(N)=N/S(=O)(=O)c1ccc([N+](=O)[O-])cc1 | > 933 µM | 257 µM | 
O=S(=O)(c1ccc(NC(=S)Nc2ccccc2)cc1)c1ccc(NC(=S)Nc2ccccc2)cc1 | > 200 µM | > 200 µM | 
N#Cc1nc(C#N)n(S(=O)(=O)c2ccccc2)c1NS(=O)(=O)c1ccccc1 | > 200 µM | > 200 µM | 
CN1CSCSC1 |  |  | inactive
CC(C)OP(=O)(OC(C)C)/C(=N/Nc1ccccc1[N+](=O)[O-])NNC(=O)c1ccccc1 | > 1.17 µM | > 1.17 µM | 

SMILES | EC50 | IC50 | outcome
COc1ccc(C2(Br)C(=O)NN=C2C)cc1 (stereo not given) | > 200 µM | 10.7 µM | 
CCOc1c(Cc2ccccc2)c(=O)n2c3ccccc3n3c(=O)n(C)c(=O)c1c23 | > 6.46 µM | > 6.46 µM | 
O=C(/C=C/c1ccccc1Br)c1ccccc1 | > 200 µM | 3.16 µM | 
Cc1ccc(/C=C2/N=C(N/N=C\C(O)C(O)C(O)C(O)CO)NC2=O)cc1 (stereo not given) | > 200 µM | 123 µM and > 200 µM and 132 µM | 
CC(=O)c1c2c(cc3c1CC1(C3)Cc3cc4c(c(C(C)=O)c3C1)CCC4)CCC2 | > 18.6 µM | > 18.6 µM | 
Cc1cc(/C=C2\C=Cc3ccccc32)ccc1N(C)C | > 38 µM | > 38 µM | 
CCOc1ccc(-c2nc(-c3oc4ccccc4c(=O)c3OC(C)=O)cs2)cc1 | > 200 µM | 112 µM | 
COc1ccc2c(c1)CCC1=C2C=C[P+]1(C)C |  |  | inactive
O=c1sc2c(s1)-c1sc(=O)sc1SS2 | > 77.6 µM | 51.3 µM | 
CC1(C)C2CCC1(CS(=O)(=O)O)C(=O)C2 (stereo not given) | > 200 µM | > 200 µM | 
COc1ccc(OC)c(C(Nc2ccc3cn[nH]c3c2)P(=O)(c2ccccc2)c2ccccc2)c1 (stereo not given) |  |  | inactive
O=C1OC(C2(O)OC(=O)c3ccccc32)c2ccccc21 (stereo not given) | > 200 µM | > 200 µM | 
CCOC(=O)c1c(C)nc2c(c1-c1cn(-c3ccccc3)nc1-c1ccccc1)C(=O)c1ccccc1-2 |  |  | inactive
CNC1C(OC2C(OC3C(O)C(O)C(N=C(N)N)C(O)C3N=C(N)N)OC(C)C2(O)C=O)OC(CO)C(OC2OC(CO)C(O)C(O)C2O)C1O (stereo not given) |  |  | inactive
CCCCCCCCCCCCCCCCOC1OC(CS(=O)(=O)O)C(O)C(O)C1O (stereo not given) | > 138 µM | 40.7 µM | 
NC12CC3CC(C1)CC(Cl)(C3)C2 | > 1120 µM | > 1120 µM | 
CC(c1ccc2c(c1)CCC1C2CC2OC23CC=CC(=O)[C@]13C)C1C[C@]2(C)O[C@]2(C)[C@H](O)O1 (stereo not given in full) | > 200 µM | 45.7 µM | 
CCN(C)c1nc(N(C)CC)c2nc(N(C)CC)nc(N(C)CC)c2n1 | > 501 µM | 120 µM | 
CCOC(=O)c1c(N)n(-c2ccccc2)c(=O)n(-c2ccccc2)c1=O | > 708 µM | 372 µM | 
COc1cc2c(c3c1C1Oc4cc(OCc5ccccc5)c(O)cc4C1C(C)(C)O3)CCC(C)(C)O2 (stereo not given) | > 200 µM | 36.3 µM | 
CC1CC[Si](C)(C)CC12C(=O)NC(=O)NC2=O (stereo not given) | > 200 µM | > 200 µM | 

SMILES | EC50 | IC50 | outcome
CCOC(=O)c1ccc(NC(=O)Nc2ncc(Cl)cc2Cl)cc1 | > 200 µM | > 200 µM | 
CCOC(=O)/C(C#N)=C/c1cccc([N+](=O)[O-])c1 | > 21.4 µM | > 21.4 µM | 
O=[N+]([O-])c1ccccc1Sc1ccc(Cl)cc1 | > 135 µM | 38.9 µM | 
O=C([CH-]C(=O)c1ccccc1)c1ccccc1.O=C([CH-]C(=O)c1ccccc1)c1ccccc1.[CH2-]CCC.[CH2-]CCC.[Sn+4] | > 7.76 µM | 0.427 µM | 
O=C(n1[nH]c(=O)n(-c2ccc([N+](=O)[O-])cc2)c1=O)C(Cl)(Cl)Cl | > 200 µM | > 200 µM | 
CSc1c(C#N)c(=O)[nH]c2n[nH]c(C)c12 | > 200 µM | > 200 µM | 
CCCCNS(=O)(=O)c1ccc(-c2ccc3c(c2)-c2ccc(S(=O)(=O)NCCCC)cc2S3(=O)=O)cc1 | > 12.9 µM | > 12.9 µM | 
S=C1N(c2ccc(Cl)cc2)C2=C(N=Nc3cc(Cl)ccc3Cl)C(=Nc3ccccc3S2)N1c1ccccn1 | > 40.7 µM | > 40.7 µM | 
COc1ccc(N2C(=O)C(=O)N(C)C2=O)c2ccccc12 |  |  | inactive
CCOC(=O)C(=Cc1ccccc1[N+](=O)[O-])C(=O)OCC | > 324 µM | 5.89 µM | 
Nc1nc2sc3ccccc3c(=O)n2n1 | > 91.2 µM | > 91.2 µM | 
COc1ccc(/C=C2\SC(=S)N(/C=C/c3nc4ccccc4[nH]c3=O)C2=O)cc1OC | > 200 µM | 32.4 µM | 
CCOC(=O)C1=c2[nH]c(O)c(C(=O)OCC)c2=NC1=O | > 5.13 µM | > 5.13 µM | 
CN(C)CCCC12OC(c3ccccc31)C(O)c1ccccc12 (stereo not given) | > 200 µM | > 200 µM | 
CCn1c(=O)c(C(=O)O)c(Cl)c2cc3c(cc21)OCO3 |  |  | inactive
CO/N=C(/C(=O)N(C(=O)/C(=N/OC)c1csc(NC(c2ccccc2)(c2ccccc2)c2ccccc2)n1)n1cnn(CC(=O)OC(C)(C)C)c1=O)c1csc(NC(c2ccccc2)(c2ccccc2)c2ccccc2)n1 | > 200 µM | 174 µM | 
CC(C)CC(NC(=O)c1cccc(O)c1O)C(=O)NCc1cc(CNC(=O)C(CC(C)C)NC(=O)c2cccc(O)c2O)cc(CNC(=O)C(CC(C)C)NC(=O)c2cccc(O)c2O)c1 (stereo not given) |  |  | inactive
CC(=O)[O-].[Zn].c1ccc(/C(=N\Nc2ccccn2)c2ccccn2)cc1 |  |  | inactive
CN(C)/C=C/c1c2c(nc3ccccc13)C(=O)c1cccnc1C2=O |  |  | inactive
CS(=O)(=O)c1ccc(/C=C2/C=Cc3ccccc32)cc1 | > 25.7 µM | > 25.7 µM | 
CCOC(=O)[C@H]1Nc2ccc([N+](=O)[O-])cc2C2c3ccccc3CC21 (stereo not given in full) | > 11.2 µM | > 11.2 µM | 

SMILES | EC50 | IC50 | outcome
NCC1OC(OC2C(N)CC(N)C(O)C2OC2OC(CO)C(O)C2O)C(N)C(O)C1O (stereo not given) |  |  | inactive
N#Cc1c(-c2ccc([N+](=O)[O-])cc2)c(C#N)c(=O)n(NS(=O)(=O)c2ccccc2)c1S | > 200 µM | 16.6 µM | 
Cc1nn(C(=O)c2ccncc2)c2c1C(c1cccc([N+](=O)[O-])c1)SC(N)=N2 (stereo not given) |  |  | inactive
CC(SCC(=O)O)=[N+]1CCCCC1 | > 891 µM | > 891 µM | 
Clc1cc(Cl)cc(C2SCc3nc4ccccc4n32)c1 (stereo not given) |  |  | inactive
[O-][N+]1=C(c2ccccc2)COc2ccccc21 | > 115 µM | > 115 µM | 
COc1ccc(C(Nc2nc3c(ncn3COCCOP(=O)(OCOC(=O)C(C)(C)C)OCOC(=O)C(C)(C)C)c(=O)[nH]2)(c2ccccc2)c2ccccc2)cc1 | > 100 µM | 8.71 µM | 
CCCCCCCCCc1cc(-c2ccc(C=O)s2)sc1-c1ccc(C=O)s1 | > 200 µM | 2.75 µM | 
O=C1OC(=O)C2=C1C1C=CC2O1 | > 1070 µM | 295 µM | 
O/N=C1\CCc2nonc2\C1=N/Nc1ccccc1 | > 200 µM | > 200 µM | 
O=C(Nc1sccc1S(=O)(=O)c1ccccc1)c1ccccc1 | > 20 µM | 11.7 µM | 
Cn1c(=O)c(Cc2c(O)c3ccccc3n(C)c2=O)c(O)c2ccccc21 | > 7.24 µM | > 7.24 µM | 
COc1cc2c(c(C3C(=O)N(C)c4ccc(Br)cc43)c1OC)OCO2 (stereo not given) | > 200 µM | > 200 µM | 
Cc1cc(=O)[nH]c(NNC(C#N)c2cccc([N+](=O)[O-])c2)n1 (stereo not given) | > 45.7 µM | > 45.7 µM | 
CC(C)(C)[Si](C)(C)OCC1OC(n2cnc3c(=O)[nH]c(NCc4cccc5ccccc45)nc32)C(O[Si](C)(C)C(C)(C)C)C1O[Si](C)(C)C(C)(C)C (stereo not given) | > 200 µM | > 200 µM | 
CCCCN(CCCC)CC(=O)Nc1ccc(C(=O)OCC(C)C)cc1 | > 200 µM | > 200 µM | 
CCOC1=NC(C(F)(F)F)(C(F)(F)F)N=C(/N=C(/N)N(C)C(C(C)C)P(=O)(OC(C)C)OC(C)C)O1 (stereo not given) | > 200 µM | 31.6 µM | 
CCOC(=O)c1c(C)c(C(C)=O)c2ccccn12 | > 145 µM | 95.5 µM | 
CC1CC(Nc2ccc(Br)cc2)N(C(=O)c2ccc(Br)cc2)O1 (stereo not given) | > 200 µM | 17 µM | 
C(=Nc1ccc(SSc2ccc(N=Cc3ccc4c(c3)OCO4)cc2)cc1)c1ccc2c(c1)OCO2 | > 200 µM | 23.4 µM | 
